Values quoted from earlier work as cited in patent US20100210653A1, “Novel Compounds, Their Preparations and Use” (HIGH POINT PHARMACEUTICALS, LLC, priority 2004, published 2010).

How the values were obtained:
C2C12 muscle cells = conditions: in vitro treatment, two publications
[1] = tested on: high fat diet induced insulin resistant mice and diabetic ob/ob; conditions: PNAS 2003, 100, 15924-15929

Structure (SMILES): Cc1cc(SCc2sc(-c3ccc(C(F)(F)F)cc3)nc2C)ccc1OCC(=O)O [GW501516]
- regulation of genes (LPL, ACS4, CTP1, PDK4, UCP1, -2, -3, ABCA1/G1) (C2C12 muscle cells): regulation of genes involved with TG hydrolysis and FFA oxidation
- insulin sensitivity [1]: improved insulin sensitivity
- plasma glucose and insulin [1]: lowering of plasma glucose and insulin
